Assays:
Type in all cases: binding
[1] = system: human monoclonal antibody CRJB
[2] = system: human monoclonal antibody CRJA
[3] = system: human monoclonal antibody CRJA; remark: listed apart in the source
[4] = system: human monoclonal antibody CRJB; remark: listed apart in the source
[5] = system: human monoclonal antibody CR57
[6] = system: human monoclonal antibody CR57; remark: listed apart in the source

Sequence: SVADLDPYDRSLHSR
- Binding of CRJB (10 μg/ml) to looped/cyclic peptide (PEPSCAN-ELISA signal) [1]: 71
- Binding of CRJA to linear peptide (PEPSCAN-ELISA signal) [2]: 92
- Binding of CRJA (10 μg/ml) to looped/cyclic peptide (PEPSCAN-ELISA signal) [3]: 83
- Binding of CRJB to linear peptide (PEPSCAN-ELISA signal) [4]: 106
- Binding of CR57 (10 μg/ml) to looped/cyclic peptide (PEPSCAN-ELISA signal) [5]: 58
- Binding of CR57 to linear peptide (PEPSCAN-ELISA signal) [6]: 49

Sequence: AIKMNGFTCTGVVTE
- Binding of CRJB (10 μg/ml) to looped/cyclic peptide (PEPSCAN-ELISA signal) [1]: 79
- Binding of CRJA to linear peptide (PEPSCAN-ELISA signal) [2]: 93
- Binding of CRJA (10 μg/ml) to looped/cyclic peptide (PEPSCAN-ELISA signal) [3]: 71
- Binding of CRJB to linear peptide (PEPSCAN-ELISA signal) [4]: 103
- Binding of CR57 (10 μg/ml) to looped/cyclic peptide (PEPSCAN-ELISA signal) [5]: 69
- Binding of CR57 to linear peptide (PEPSCAN-ELISA signal) [6]: 47

Sequence: GVLGLRLMDGTWVAM
- Binding of CRJB (10 μg/ml) to looped/cyclic peptide (PEPSCAN-ELISA) [1]: 83
- Binding of CRJA to linear peptide (PEPSCAN-ELISA signal) [2]: 107
- Binding of CRJA (10 μg/ml) to looped/cyclic peptide (PEPSCAN-ELISA) [3]: 104
- Binding of CRJB to linear peptide (PEPSCAN-ELISA signal) [4]: 148
- Binding of CR57 (10 μg/ml) to looped/cyclic peptide (PEPSCAN-ELISA) [5]: 118
- Binding of CR57 to linear peptide (PEPSCAN-ELISA signal) [6]: 89

Sequence: KRASKGSETCGFVDE
- Binding of CRJB (10 μg/ml) to looped/cyclic peptide (PEPSCAN-ELISA) [1]: 85
- Binding of CRJA to linear peptide (PEPSCAN-ELISA signal) [2]: 97
- Binding of CRJA (10 μg/ml) to looped/cyclic peptide (PEPSCAN-ELISA) [3]: 101
- Binding of CRJB to linear peptide (PEPSCAN-ELISA signal) [4]: 106
- Binding of CR57 (10 μg/ml) to looped/cyclic peptide (PEPSCAN-ELISA) [5]: 120
- Binding of CR57 to linear peptide (PEPSCAN-ELISA signal) [6]: 92

Sequence: ILGPDGNVLIPEMQS
- Binding of CRJB (10 μg/ml) to looped/cyclic peptide (PEPSCAN-ELISA) [1]: 92
- Binding of CRJA to linear peptide (PEPSCAN-ELISA signal) [2]: 90
- Binding of CRJA (10 μg/ml) to looped/cyclic peptide (PEPSCAN-ELISA) [3]: 100
- Binding of CRJB to linear peptide (PEPSCAN-ELISA signal) [4]: 134
- Binding of CR57 (10 μg/ml) to looped/cyclic peptide (PEPSCAN-ELISA) [5]: 143
- Binding of CR57 to linear peptide (PEPSCAN-ELISA signal) [6]: 125

Sequence: SKGSETCGFVDERGL
- Binding of CRJB (10 μg/ml) to looped/cyclic peptide (PEPSCAN-ELISA) [1]: 77
- Binding of CRJA to linear peptide (PEPSCAN-ELISA signal) [2]: 104
- Binding of CRJA (10 μg/ml) to looped/cyclic peptide (PEPSCAN-ELISA) [3]: 99
- Binding of CRJB to linear peptide (PEPSCAN-ELISA signal) [4]: 102
- Binding of CR57 (10 μg/ml) to looped/cyclic peptide (PEPSCAN-ELISA) [5]: 104
- Binding of CR57 to linear peptide (PEPSCAN-ELISA signal) [6]: 92

Sequence: EILPSKGCLRVGGRC
- Binding of CRJB (10 μg/ml) to looped/cyclic peptide (PEPSCAN-ELISA) [1]: 97
- Binding of CRJA to linear peptide (PEPSCAN-ELISA signal) [2]: 106
- Binding of CRJA (10 μg/ml) to looped/cyclic peptide (PEPSCAN-ELISA) [3]: 111
- Binding of CRJB to linear peptide (PEPSCAN-ELISA signal) [4]: 112
- Binding of CR57 (10 μg/ml) to looped/cyclic peptide (PEPSCAN-ELISA) [5]: 132
- Binding of CR57 to linear peptide (PEPSCAN-ELISA signal) [6]: 104

Sequence: VFPSGKCSGVAVSST
- Binding of CRJB (10 μg/ml) to looped/cyclic peptide (PEPSCAN-ELISA signal) [1]: 75
- Binding of CRJA to linear peptide (PEPSCAN-ELISA signal) [2]: 68
- Binding of CRJA (10 μg/ml) to looped/cyclic peptide (PEPSCAN-ELISA signal) [3]: 55
- Binding of CRJB to linear peptide (PEPSCAN-ELISA signal) [4]: 114
- Binding of CR57 (10 μg/ml) to looped/cyclic peptide (PEPSCAN-ELISA signal) [5]: 79
- Binding of CR57 to linear peptide (PEPSCAN-ELISA signal) [6]: 74

Sequence: HNPYPDYRWLRTVKT
- Binding of CRJB (10 μg/ml) to looped/cyclic peptide (PEPSCAN-ELISA signal) [1]: 69
- Binding of CRJA to linear peptide (PEPSCAN-ELISA signal) [2]: 98
- Binding of CRJA (10 μg/ml) to looped/cyclic peptide (PEPSCAN-ELISA signal) [3]: 65
- Binding of CRJB to linear peptide (PEPSCAN-ELISA signal) [4]: 108
- Binding of CR57 (10 μg/ml) to looped/cyclic peptide (PEPSCAN-ELISA signal) [5]: 85
- Binding of CR57 to linear peptide (PEPSCAN-ELISA signal) [6]: 86

Sequence: TNFVGYVTTTFKRKH
- Binding of CRJB (10 μg/ml) to looped/cyclic peptide (PEPSCAN-ELISA signal) [1]: 99
- Binding of CRJA to linear peptide (PEPSCAN-ELISA signal) [2]: 96
- Binding of CRJA (10 μg/ml) to looped/cyclic peptide (PEPSCAN-ELISA signal) [3]: 96
- Binding of CRJB to linear peptide (PEPSCAN-ELISA signal) [4]: 125
- Binding of CR57 (10 μg/ml) to looped/cyclic peptide (PEPSCAN-ELISA signal) [5]: 79
- Binding of CR57 to linear peptide (PEPSCAN-ELISA signal) [6]: 71

Sequence: PIDIHHLSCPNNLVV
- Binding of CRJB (10 μg/ml) to looped/cyclic peptide (PEPSCAN-ELISA signal) [1]: 70
- Binding of CRJA to linear peptide (PEPSCAN-ELISA signal) [2]: 39
- Binding of CRJA (10 μg/ml) to looped/cyclic peptide (PEPSCAN-ELISA signal) [3]: 38
- Binding of CRJB to linear peptide (PEPSCAN-ELISA signal) [4]: 93
- Binding of CR57 (10 μg/ml) to looped/cyclic peptide (PEPSCAN-ELISA signal) [5]: 50
- Binding of CR57 to linear peptide (PEPSCAN-ELISA signal) [6]: 46

Sequence: HVNGVFFNGIILGPD
- Binding of CRJB (10 μg/ml) to looped/cyclic peptide (PEPSCAN-ELISA) [1]: 92
- Binding of CRJA to linear peptide (PEPSCAN-ELISA signal) [2]: 108
- Binding of CRJA (10 μg/ml) to looped/cyclic peptide (PEPSCAN-ELISA) [3]: 105
- Binding of CRJB to linear peptide (PEPSCAN-ELISA signal) [4]: 123
- Binding of CR57 (10 μg/ml) to looped/cyclic peptide (PEPSCAN-ELISA) [5]: 97
- Binding of CR57 to linear peptide (PEPSCAN-ELISA signal) [6]: 97

— patent US20060263802A1 (priority 2003, published 2006)
